Source: US12098144B2, “Piperazine indazole glucocorticoid receptor antagonists” (Corcept Therapeutics Incorporated, priority 2021, dated 2024)
pKi: −log10 of the molar value.

Target: T1, glucocorticoid receptor (Homo sapiens, UniProt P04150)
T1 construct: endogenous in cells; ATCC cat
T1 sequence (P04150 1-777): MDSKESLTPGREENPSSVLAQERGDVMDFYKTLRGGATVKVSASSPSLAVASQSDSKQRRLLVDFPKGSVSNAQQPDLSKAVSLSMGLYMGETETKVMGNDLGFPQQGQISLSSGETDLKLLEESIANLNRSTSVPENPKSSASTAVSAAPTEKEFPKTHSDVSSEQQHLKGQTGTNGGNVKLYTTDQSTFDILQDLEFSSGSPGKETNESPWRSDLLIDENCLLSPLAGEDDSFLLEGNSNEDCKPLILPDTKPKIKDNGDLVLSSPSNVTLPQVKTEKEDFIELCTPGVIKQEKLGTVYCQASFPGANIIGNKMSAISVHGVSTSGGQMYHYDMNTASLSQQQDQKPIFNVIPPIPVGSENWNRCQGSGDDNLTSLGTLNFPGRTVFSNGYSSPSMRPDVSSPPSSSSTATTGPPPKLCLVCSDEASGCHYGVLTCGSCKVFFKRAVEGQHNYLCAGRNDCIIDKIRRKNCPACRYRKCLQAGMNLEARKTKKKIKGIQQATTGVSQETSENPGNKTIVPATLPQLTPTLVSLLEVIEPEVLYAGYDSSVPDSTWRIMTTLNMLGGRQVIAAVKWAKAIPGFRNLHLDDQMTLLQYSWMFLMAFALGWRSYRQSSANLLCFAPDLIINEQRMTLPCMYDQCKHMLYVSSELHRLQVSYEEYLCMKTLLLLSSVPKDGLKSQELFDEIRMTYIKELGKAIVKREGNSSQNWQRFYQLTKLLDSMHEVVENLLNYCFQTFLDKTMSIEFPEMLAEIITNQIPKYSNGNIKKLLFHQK
Assay: Hep G2 TAT Ki: inhibition of dexamethasone-induced TAT in HepG2 cells (96 well)
Format: cell-based
Conditions: challenge of 100 nM dexamethasone, IC50 converted to Ki by Cheng and Prusoff equation
Experimental: Glucocorticoid mediated activation of TAT occurs by transactivation of glucocorticoid response elements in the TAT promoter by glucocorticoid receptor-agonist complex.
HepG2 cells were cultured using MEME media supplemented with 10% (v/v) foetal bovine serum; 2 mM L-glutamine and 1% (v/v) NEAA at 37° C., 5%/95% (v/v) CO2/air.
Compounds were serially half log diluted in 100% (v/v) dimethylsulphoxide from a 10 mM stock.
HepG2 cells were then lysed with 30 μl of cell lysis buffer containing a protease inhibitor cocktail for 15 minutes at 4° C. […] After 2 hours incubation at 37° C. the reaction was terminated by the addition of 15 μl of 10M aqueous potassium hydroxide solution, and the plates incubated for a further 30 minutes at 37° C.
[compound] and fitting the data to a 4 parameter logistic equation.

SMILES	pKi
COCCS(=O)(=O)N1CCN(CC(C)C)C(c2cc3cnn(-c4ccc(F)cc4)c3cc2C)C1 (single isomer, unassigned) [Example 45, 1-(4-fluorophenyl)-5-(1-isobutyl-4-((2-methoxyethyl)sulfonyl)piperazin-2-yl)-6-methyl-1H-indazole]	6.29
Cc1cc2c(cnn2-c2ccc(F)cc2)cc1C1CN(S(=O)(=O)CC2CC2)CCN1CC(C)C (single isomer, unassigned) [Example 46, 5-(4-((cyclopropylmethyl)sulfonyl)-1-isobutylpiperazin-2-yl)-1-(4-fluorophenyl)-6-methyl-1H-indazole]	6.51
COCCn1cc(S(=O)(=O)N2CCN(CC(C)C)C(c3cc4cnn(-c5ccc(F)cc5)c4cc3C)C2)cn1 (single isomer, unassigned) [Example 47, 1-(4-fluorophenyl)-5-(1-isobutyl-4-((1-(2-methoxyethyl)-1H-pyrazol-4-yl)sulfonyl)piperazin-2-yl)-6-methyl-1H-indazole]	7.64
CCn1ncc(S(=O)(=O)N2CCN(CC(C)C)C(c3cc4cnn(-c5ccc(F)cc5)c4cc3C)C2)n1 (single isomer, unassigned) [Example 48, 5-(4-((2-ethyl-2H-1,2,3-triazol-4-yl)sulfonyl)-1-isobutylpiperazin-2-yl)-1-(4-fluorophenyl)-6-methyl-1H-indazole]	7.64
CCCS(=O)(=O)N1CCN(CC(C)C)C(c2cc3cnn(-c4ccc(F)cc4)c3cc2C)C1 (single isomer, unassigned) [Example 49, 1-(4-fluorophenyl)-5-(1-isobutyl-4-(propylsulfonyl)piperazin-2-yl)-6-methyl-1H-indazole]	7.51
Cc1cc2c(cnn2-c2ccc(F)cc2)cc1C1CN(S(=O)(=O)N(C)C)CCN1CC(C)C (single isomer, unassigned) [Example 50, 3-(1-(4-fluorophenyl)-6-methyl-1H-indazol-5-yl)-4-isobutyl-N,N-dimethylpiperazine-1-sulfonamide]	7.19
Cc1cc2c(cnn2-c2ccc(F)cc2)cc1C1CN(S(=O)(=O)CC2CC2)CCN1CC(C)C (single isomer, unassigned) [Example 51, 5-(4-((cyclopropylmethyl)sulfonyl)-1-isobutylpiperazin-2-yl)-1-(4-fluorophenyl)-6-methyl-1H-indazole]	7.55
Cc1cc2c(cnn2-c2ccc(F)cc2)cc1C1CN(S(=O)(=O)CC(C)C)CCN1CC(C)C (single isomer, unassigned) [Example 52, 1-(4-fluorophenyl)-5-(1-isobutyl-4-(isobutylsulfonyl)piperazin-2-yl)-6-methyl-1H-indazole]	7.62
Cc1cc2c(cnn2-c2ccc(F)cc2)cc1C1CN(S(=O)(=O)N2CCOCC2)CCN1CC(C)C (single isomer, unassigned) [Example 53, 4-((3-(1-(4-fluorophenyl)-6-methyl-1H-indazol-5-yl)-4-isobutylpiperazin-1-yl)sulfonyl)morpholine]	7.39
Cc1cc2c(cnn2-c2ccc(F)cc2)cc1C1CN(S(=O)(=O)c2cnn(C3CCOCC3)c2)CCN1CC(C)C (single isomer, unassigned) [Example 54, 1-(4-fluorophenyl)-5-(1-isobutyl-4-((1-(tetrahydro-2H-pyran-4-yl)-1H-pyrazol-4-yl)sulfonyl)piperazin-2-yl)-6-methyl-1H-indazole]	7.51
CCn1cc(S(=O)(=O)N2CCN(CC(C)C)C(c3cc4cnn(-c5ccc(F)cc5)c4cc3C)C2)cn1 (single isomer, unassigned) [Example 55, 5-(4-((1-ethyl-1H-pyrazol-4-yl)sulfonyl)-1-isobutylpiperazin-2-yl)-1-(4-fluorophenyl)-6-methyl-1H-indazole]	7.72
Cc1cc2c(cnn2-c2ccc(F)cc2)cc1C1CN(S(=O)(=O)c2conc2C)CCN1CC(C)C (single isomer, unassigned) [Example 56, 4-((3-(1-(4-fluorophenyl)-6-methyl-1H-indazol-5-yl)-4-isobutylpiperazin-1-yl)sulfonyl)-3-methylisoxazole]	7.19
Cc1cc2c(cnn2-c2ccc(F)cc2)cc1C1CN(S(=O)(=O)c2cnn(C)c2C)CCN1CC(C)C (single isomer, unassigned) [Example 57, 5-(4-((1,5-dimethyl-1H-pyrazol-4-yl)sulfonyl)-1-isobutylpiperazin-2-yl)-1-(4-fluorophenyl)-6-methyl-1H-indazole]	7.72
Cc1cc2c(cnn2-c2ccc(F)cc2)cc1C1CN(S(=O)(=O)c2cncs2)CCN1CC(C)C (single isomer, unassigned) [Example 58, 5-((3-(1-(4-fluorophenyl)-6-methyl-1H-indazol-5-yl)-4-isobutylpiperazin-1-yl)sulfonyl)thiazole]	7.82
Cc1cc2c(cnn2-c2ccc(F)cc2)cc1C1CN(S(=O)(=O)c2cnn(C(F)F)c2)CCN1CC(C)C (single isomer, unassigned) [Example 59, 5-(4-((1-(difluoromethyl)-1H-pyrazol-4-yl)sulfonyl)-1-isobutylpiperazin-2-yl)-1-(4-fluorophenyl)-6-methyl-1H-indazole]	7.66
COCCS(=O)(=O)N1CCN(CC(C)C)C(c2cc3cnn(-c4ccc(F)cc4)c3cc2C)C1 (single isomer, unassigned) [Example 60, 1-(4-fluorophenyl)-5-(1-isobutyl-4-((2-methoxyethyl)sulfonyl)piperazin-2-yl)-6-methyl-1H-indazole]	7.55
Cc1cc2c(cnn2-c2ccc(F)cc2)cc1C1CN(S(=O)(=O)CC2CCOCC2)CCN1CC(C)C (single isomer, unassigned) [Example 61, 1-(4-fluorophenyl)-5-(1-isobutyl-4-(((tetrahydro-2H-pyran-4-yl)methyl)sulfonyl)piperazin-2-yl)-6-methyl-1H-indazole]	7.19
Cc1cc2c(cnn2-c2ccc(F)cc2)cc1C1CN(S(=O)(=O)N(C)C2CC2)CCN1CC(C)C (single isomer, unassigned) [Example 62, N-cyclopropyl-3-(1-(4-fluorophenyl)-6-methyl-1H-indazol-5-yl)-4-isobutyl-N-methylpiperazine-1-sulfonamide]	7.36
CCn1cc(S(=O)(=O)N2CCN(CC(C)C)C(c3cc4cnn(-c5ccc(F)cc5)c4cc3C)C2)nn1 (single isomer, unassigned) [Example 63, 5-(4-((1-ethyl-1H-1,2,3-triazol-4-yl)sulfonyl)-1-isobutylpiperazin-2-yl)-1-(4-fluorophenyl)-6-methyl-1H-indazole]	7.70
Cc1cc2c(cnn2-c2ccc(F)cc2)cc1C1CN(S(=O)(=O)c2cnn(C)c2)CCN1CC(C)C (single isomer, unassigned) [Example 64, 1-(4-fluorophenyl)-5-(1-isobutyl-4-((1-methyl-1H-pyrazol-4-yl)sulfonyl)piperazin-2-yl)-6-methyl-1H-indazole]	7.30
Cc1cc2c(cnn2-c2ccc(F)cc2)cc1C1CN(S(=O)(=O)c2cnn(C)n2)CCN1Cc1ccon1 (single isomer, unassigned) [Example 72, 3-((2-(1-(4-fluorophenyl)-6-methyl-1H-indazol-5-yl)-4-((2-methyl-2H-1,2,3-triazol-4-yl)sulfonyl)piperazin-1-yl)methyl)isoxazole]	6.48
